Reference: patent publication US20120046232A1, “COMPOSITIONS AND METHODS FOR REDUCING RELAPSE OF ADDICTIVE BEHAVIOR” (Medical University of South Carolina, priority 2010, published 2012)
Entries after “also recorded” stand apart in the source; their conditions may differ. Where two headings read alike, the source gives them in different places. One block for each molecule: values may come before it.

How the values were obtained:
mGluR2/3 [1] = conditions: intra-accumbens infusion, microdialysis probes; cited from earlier work
mGluR2/3 receptors [2] = conditions: perfusion into the accumbens, in vivo microdialysis; cited from earlier work
mGluR2/3 [3] = conditions: cited from earlier work; for PFC glutamate levels: infusion/perfusion into PFC, microdialysis
mGluR5 [4] = molecular target: T1, mGluR5 (Rattus norvegicus, UniProt P31424); assay: Cue-induced cocaine relapse (active lever presses), CHPG microinjected into nucleus accumbens (FIG. 1); format: in vivo, rats
T1 construct: from tissue; host or cells: brain of living Sprague-Dawley rats (nucleus accumbens for CHPG microinjection; systemic dosing for MTEP, MPEP, Fenobam)
T1 sequence (P31424 21-1203): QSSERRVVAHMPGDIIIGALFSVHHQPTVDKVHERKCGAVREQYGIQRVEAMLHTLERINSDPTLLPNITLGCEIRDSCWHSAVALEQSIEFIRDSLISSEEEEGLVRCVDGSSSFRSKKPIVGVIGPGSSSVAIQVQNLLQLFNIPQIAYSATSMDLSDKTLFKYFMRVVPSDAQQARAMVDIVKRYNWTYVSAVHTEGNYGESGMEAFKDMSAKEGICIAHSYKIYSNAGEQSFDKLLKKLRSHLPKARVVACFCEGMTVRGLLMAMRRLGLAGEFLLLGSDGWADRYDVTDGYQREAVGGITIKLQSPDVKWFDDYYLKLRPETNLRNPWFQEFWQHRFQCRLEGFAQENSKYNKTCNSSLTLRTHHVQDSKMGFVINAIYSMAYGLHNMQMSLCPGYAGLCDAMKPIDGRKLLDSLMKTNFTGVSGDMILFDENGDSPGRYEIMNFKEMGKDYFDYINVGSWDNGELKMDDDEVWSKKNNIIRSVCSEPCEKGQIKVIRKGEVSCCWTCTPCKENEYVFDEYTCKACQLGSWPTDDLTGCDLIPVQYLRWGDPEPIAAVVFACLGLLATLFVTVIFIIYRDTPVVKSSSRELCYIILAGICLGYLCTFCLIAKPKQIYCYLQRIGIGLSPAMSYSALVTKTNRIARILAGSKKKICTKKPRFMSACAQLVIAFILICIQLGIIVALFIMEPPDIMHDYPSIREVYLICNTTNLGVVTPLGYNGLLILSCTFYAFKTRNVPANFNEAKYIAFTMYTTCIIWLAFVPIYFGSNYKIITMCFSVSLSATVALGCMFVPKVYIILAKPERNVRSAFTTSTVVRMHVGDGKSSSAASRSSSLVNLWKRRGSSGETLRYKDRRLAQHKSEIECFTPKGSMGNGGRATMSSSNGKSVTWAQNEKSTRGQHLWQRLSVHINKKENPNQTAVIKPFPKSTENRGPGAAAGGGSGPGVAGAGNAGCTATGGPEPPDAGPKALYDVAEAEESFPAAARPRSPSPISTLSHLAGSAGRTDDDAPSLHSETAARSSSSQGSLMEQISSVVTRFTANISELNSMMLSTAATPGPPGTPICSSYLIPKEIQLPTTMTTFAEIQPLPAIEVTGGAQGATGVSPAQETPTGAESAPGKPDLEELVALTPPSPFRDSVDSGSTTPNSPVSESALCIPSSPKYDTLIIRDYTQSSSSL
Protocol: Relapse was induced by presenting the animal with a tone and light compound cue that was previously associated with cocaine delivery during the self-administration training. […] Data were analyzed using one-way ANOVA (2,14)=5.20, p=0.021; *p<0.05 compared to extinction, +p<0.05 comparing cue+aCSF (artificial cerebrospinal fluid control injection).
(§1) All experiments were conducted in accordance with the US National Institutes of Health guidelines for the care and use of laboratory animals, and all procedures were approved by the Institutional Animal Care and Use Committee at the Medical University of South Carolina. One week after arrival, male Sprague-Dawley rats (250 g) were anesthetized with ketamine HCl (87.5 mg kg^−1 Ketaset, Fort Dodge Animal Health) and xylazine (5 mg kg^−1 Rompum, Bayer) and implanted with intravenous catheters. The catheters were flushed daily with cefazolin (0.2 ml of a 0.1 g/ml solution) and heparin (0.2 ml of 100 units) to prevent infection and maintain catheter patency. Rats were allowed to recover for a week before behavioral training (Baker et al. Nat. Neurosci 6:743-749, 2003).
Rats were trained to self-administer cocaine in a standard operant chamber with two retractable levers. The self-administration regimen consisted of 10d of self-administration at >10 infusions per session. […]

mGluR5 [5] = molecular target: T1, mGluR5; assay: Cocaine+cue induced reinstatement, low-dose mGluR5 antagonists in rats given N-acetylcysteine after extinction (FIG. 6); format: in vivo; conditions: MPEP 1.0 mg/kg/ip or Fenobam 1.75 mg/kg/ip
Protocol: Top, treatment protocol for cocaine, N-acetylcysteine, and mGluR5 antagonists.
Rats were injected with low doses of MPEP (1.0 mg/kg/ip) or Fenobam (1.75 mg/kg/ip) (FIG. 6), both systemically active and selective mGluR5 receptor antagonists (Carroll, 2008; Montana et al., 2009).
as §1
Rats were trained to self-administer cocaine in a standard operant chamber with two retractable levers. The self-administration regimen consisted of 10d of self-administration at >10 infusions per session. […] Cocaine self-administering rats were often paired with yoked saline controls. Extinction procedures began 24 h after the rat met the acquisition criterion and lasted for at least 3 weeks. Lever presses were inconsequential throughout the extinction training

mGluR2/3 receptors [6] = conditions: bath application, accumbens slices; cited from earlier work
mGluR5 [7] = molecular target: T1, mGluR5; assay: Cocaine relapse, chronic NAC or saline followed by acute MPEP (FIG. 3); format: in vivo
Protocol: Data were analyzed by a two-way ANOVA interaction F(1,20)=7.17, p=0.015; *p<0.05 comparing saline to MPEP.
Towards this end, the effects of chronic NAC followed by acute administration of mGluR5 modulator (MPEP) on relapse in the rat model were examined.
as §1
Rats were trained to self-administer cocaine in a standard operant chamber with two retractable levers. The self-administration regimen consisted of 10d of self-administration at >10 infusions per session. […] Cocaine self-administering rats were often paired with yoked saline controls. […]

[8] = cited from earlier work
[9] = cited from earlier work; remark: listed apart in the source
XC transporter = conditions: cited from earlier work
[10] = humans; cited from earlier work
[11] = cited from earlier work; remark: listed apart in the source
system XC− = conditions: cystine added to brain slices; cited from earlier work
[12] = rats given N-acetylcysteine after extinction training

SMILES: O=C(O)CCC(CP(=O)(O)O)C(=O)O (centres unmarked) [2-PMPA, 2-(phosphonomethyl)-pentanedioic acid]
basal dopamine levels (mGluR2/3 [1]): reduce

SMILES: N[C@@]1(C(=O)O)CN[C@@H](C(=O)O)C1 [APDC, (2R,4R)-4-aminopyrrolidine-2,4-dycarboxylate]
extracellular glutamate in the accumbens (mGluR2/3 receptors [2]): reduced extracellular glutamate levels
PFC glutamate levels (mGluR2/3 [3]): without effect

SMILES: NC(C(=O)O)c1cc(O)ccc1Cl (centres unmarked) [CHPG]
relapse induced by agonist alone (mGluR5 [4]; CHPG alone, without cue): did not induce relapse
cue-induced relapse (active lever presses) (mGluR5 [4]; CHPG into nucleus accumbens plus tone and light cue, rats withdrawn 3-5 weeks after cocaine self-administration): dose-dependant increase

SMILES: N[C@H](C(=O)O)C1[C@@H](C(=O)O)[C@@H]1C(=O)O (stereo partly drawn) [DCG-4, (2S,1′R,2′R,3′R)-2-(2,3-dicarboxycyclopropyl)glycine]
basal dopamine levels (mGluR2/3 [1]): reduce

relapse to cocaine seeking (lever pressing) (mGluR5 [5]; vehicle treated rats): not
SMILES: CN1CC(=O)N=C1NC(=O)Nc1cccc(Cl)c1 [Fenobam, 1-(3-chlorophenyl)-3-(3-methyl-5-oxo-4H-imidazol-2-yl)urea]
relapse to cocaine seeking (lever pressing) (mGluR5 [5]; [12]): significantly reduced lever pressing; also recorded: inhibit relapse

SMILES: N[C@H](C(=O)O)[C@H]1C[C@@H]1C(=O)O [L-CCG1, (2S,1′S,2′S)-2-(2′-carboxycyclopropyl)glycine]
mEPSC amplitude (mGluR2/3 receptors [6]): without affecting
mEPSC frequency (mGluR2/3 receptors [6]): reduced
paired pulse ratios (mGluR2/3 receptors [6]): increased

SMILES: N[C@](CC1c2ccccc2Oc2ccccc21)(C(=O)O)[C@H]1C[C@@H]1C(=O)O [LY341495]
extracellular glutamate in the accumbens (mGluR2/3 receptors [2]): increased glutamate release
glutamate levels in subcortical regions (nucleus accumbens and VTA) (mGluR2/3 [3]; infusion in the prefrontal cortex): increased
PFC glutamate levels (mGluR2/3 [3]): increase

SMILES: N[C@@]1(C(=O)O)CO[C@H]2[C@H](C(=O)O)[C@H]21 [LY379268]
basal dopamine levels (mGluR2/3 [1]): reduce

SMILES: N[C@]1(C(=O)O)[C@H]2[C@@H](C[C@H]1OCc1ccc(Cl)c(Cl)c1)[C@]2(F)C(=O)O [MGS0039]
basal dopamine levels (mGluR2/3 [1]): increase

relapse to cocaine seeking (lever pressing) (mGluR5 [5]; vehicle treated rats): not
lever pressing (measure of relapse) (mGluR5 [7]; acute MPEP in animals treated chronically with saline): without effect and not
SMILES: Cc1cccc(C#Cc2ccccc2)n1 [MPEP, 2-methyl-6-(phenylethynyl)pyridine]
relapse to cocaine seeking (lever pressing) (mGluR5 [5]; [12]): significantly reduced lever pressing; also recorded: inhibit relapse
lever pressing (measure of relapse) (mGluR5 [7]; acute MPEP in animals treated chronically with NAC): reduced cocaine relapse; also recorded: reduced lever pressing

SMILES: CC(N)(C(=O)O)c1ccc(P(=O)(O)O)cc1 (stereo not drawn) [MPPG, α-methyl-4-phosphonophenylglycine]
basal dopamine levels (mGluR2/3 [1]): increase

SMILES: CC(=O)N[C@@H](CS)C(=O)O [NAC, N-acetylcysteine]
solubility [8]: more soluble
side effects ([9]; clinical use): minimal and mostly limited to gastrointestinal discomfort; also recorded: without any noticeable side effects
toxicity ([9]; compared with cystine and cysteine): less toxic
extinction responding (XC transporter; NAC for 2 weeks during extinction from heroin self-administration): reduces extinction responding
reinstatement (XC transporter; NAC for 2 weeks during extinction from heroin self-administration, up to one month after last injection): prevents reinstatement
extinction responding (XC transporter; NAC treatment during self-administration, after chronic cocaine): reduces extinction responding
extracellular glutamate levels in the accumbens (XC transporter; after chronic cocaine): normalizes
relapse to drug seeking (XC transporter; animal models of drug addiction): inhibit relapse to cocaine and heroin; also recorded: prevents relapse to drug seeking
protection against relapse (XC transporter; chronic NAC during cocaine self-administration or heroin extinction, several weeks after last NAC injection): enduring protection against relapse
cocaine, nicotine and marijuana use [10]: reduces but does not abolish
compulsive gambling behavior [10]: reduce
desire for cocaine use [10]: reduce
marijuana abuse [10]: reduce
number of cigarettes smoked [10]: reduce
peak concentration ([11]; 600 mg i.v. dose): 300 µM
peak NAC plasma concentration ([11]; humans, 400 mg oral dose): 10 to 17 µM
peak NAC plasma concentration ([11]; humans, 600 mg oral dose): 16 µM
time of peak NAC plasma concentration after administration ([11]; humans, 400 or 600 mg oral dose): one
half-life ([11]; oral NAC): 6.25 h
oral bioavailability ([11]; oral NAC): 4-10%
time to peak plasma concentration following ingestion ([11]; oral NAC): 1 to 2 h

SMILES: N[C@@H](CSSC[C@H](N)C(=O)O)C(=O)O [cystine]
solubility [8]: very limited solubility
extracellular glutamate levels (system XC−): increases
